Measurements published in US9409952B2, “Peptide-compound cyclization method” (Chugai Seiyaku Kabushiki Kaisha, priority 2011, dated 2016).
Where two headings read alike, the source gives them in different places. Starred links: 1 amine or outer side, 2 acyl side, 3 side chain; linkers in the order of their positions; H or OH if unused. Positions of bridges follow the written chain, without caps; N, C: chain ends. Non-standard residues stand in square brackets, D forms with d. Residues, ends and D or L forms follow the SMILES beside them. *: point of attachment. NMeF = CN[C@@H](Cc1ccccc1)C(=O)O; NMeGABA = CN(CCCC(=O)[*:2])[*:1]; NMeβAla = CN(CCC(=O)[*:2])[*:1]; NMeL = CN[C@@H](CC(C)C)C(=O)O; NMeV = CN[C@H](C(=O)O)C(C)C; NMeA = CN[C@@H](C)C(=O)O; Piperidide = C1CCN(*)CC1; dNMeA = CN[C@H](C)C(=O)O; Sar = CNCC(=O)O; tBu = CC(C)(C)*

Assays:
[1] = PAMPA (parallel artificial membrane permeability assay); assay type: in vitro ADME; details: PAMPA
Method in brief: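 Artificial membrane was 10% (w/v) egg lecithin plus 0.5% (w/v) cholesterol in dodecane on a PVDF filter. A 10 mM DMSO stock was added at 0.5% (v/v) to donor buffer (50 mM MOPSO, pH 6.5, 5.0% glycocholic acid). After 18 h at 37 °C, LC/MS or LC/UV gave donor and acceptor levels for Pe.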

[2] = Metabolic stability in human hepatic microsome; assay type: in vitro ADME; details: microsomes
[3] = membrane permeation rate (Pe), 50 mM MOPSO buffer pH 6.5 with 5.0% glycocholic acid, 37° C., 18 hours, read-out: iPAMPA Pe
[4] = pH 7.4, human hepatic microsome, NADPH(+), read-out: CL NADPH(+)

CC[C@H](C)[C@@H]1NC(=O)[C@H](CC(C)C)N(C)C(=O)[C@H](C)NC(=O)CCCN(C)C(=O)C[C@@H](C(=O)N2CCCCC2)NC(=O)[C@H]([C@@H](C)O)NC(=O)[C@H](Cc2ccccc2)NC(=O)[C@H](C(C)C)N(C)C(=O)[C@H](CC(C)C)N(C)C(=O)[C@H](Cc2ccccc2)N(C)C1=O [DP-121] ([NMeGABA]A[NMeL]I[NMeF][NMeL][NMeV]FTD-Piperidide; lactam N-10)
Papp at 18 hours, 50 µM ([1]; pH 6.5): 41 ×10⁻⁶ cm/s
microsomal CLint at 1 uM ([2]; human, pH 7.4, CL NADPH(+)): 46 µL/min/mg

CC(C)C[C@H]1C(=O)N(C)[C@@H](Cc2ccccc2)C(=O)N[C@@H]([C@@H](C)O)C(=O)N(C)[C@@H](C)C(=O)N(C)[C@@H](CC(C)C)C(=O)N(C)[C@@H](CC(C)C)C(=O)N[C@H](C(=O)N2CCCCC2)CC(=O)N(C)CCCC(=O)N[C@@H](COC(C)(C)C)C(=O)N(C)CC(=O)N1C [DP-122] ([NMeGABA]S(tBu)[Sar][NMeL][NMeF]T[NMeA][NMeL][NMeL]D-Piperidide; lactam N-10)
Papp at 18 hours, 50 µM ([1]; pH 6.5): 32 ×10⁻⁶ cm/s
microsomal CLint at 1 uM ([2]; human, pH 7.4, CL NADPH(+)): 169 µL/min/mg

CC(C)C[C@H]1C(=O)N(C)[C@@H](CC(C)C)C(=O)N[C@H](C(=O)N(C)[C@@H](Cc2ccccc2)C(=O)N[C@@H](C)C(=O)N2CCCCC2)CC(=O)N[C@H](C(C)C)C(=O)N(C)[C@@H](C)C(=O)N(C)[C@@H](Cc2ccccc2)C(=O)N(C)[C@@H](CC(C)C)C(=O)N[C@@H]([C@@H](C)O)C(=O)N(C)CC(=O)N[C@@H](C(C)C)C(=O)N1C [DP-123] ([dV][NMeA][NMeF][NMeL]T[Sar]V[NMeL][NMeL]D[NMeF]A-Piperidide; lactam N-10)
Papp at 18 hours, 50 µM [1, 3]: 58 ×10⁻⁶ cm/s
microsomal CLint at 1 uM [2, 4]: 21 µL/min/mg

CC[C@H](C)[C@@H]1NC(=O)[C@@H](C)N(C)C(=O)C[C@@H](C(=O)N(C)[C@@H](Cc2ccccc2)C(=O)N[C@@H](C)C(=O)N2CCCCC2)NC(=O)[C@H](Cc2ccccc2)N(C)C(=O)[C@H](C)NC(=O)[C@H](CC(C)C)N(C)C(=O)[C@H](C)N(C)C(=O)[C@H]([C@@H](C)O)NC(=O)[C@H](C(C)C)N(C)C(=O)[C@H](C)N(C)C1=O [DP-124] ([dNMeA]I[NMeA][NMeV]T[NMeA][NMeL]A[NMeF]D[NMeF]A-Piperidide; lactam N-10)
Papp at 18 hours, 50 µM ([1]; pH 6.5): 20 ×10⁻⁶ cm/s
microsomal CLint at 1 uM ([2]; human, pH 7.4, CL NADPH(+)): 27 µL/min/mg

CC(C)C[C@@H]1NC(=O)[C@H](Cc2ccccc2)N(C)C(=O)[C@H](CC(C)C)N(C)C(=O)CCN(C)C(=O)C[C@@H](C(=O)N2CCCCC2)NC(=O)[C@H](CC(C)C)N(C)C(=O)[C@H](Cc2ccccc2)N(C)C(=O)[C@H]([C@@H](C)O)NC(=O)[C@H](Cc2ccccc2)N(C)C1=O [DP-126] ([NMeβAla][NMeL][NMeF]L[NMeF]T[NMeF][NMeL]D-Piperidide; lactam N-9)
Papp at 18 hours, 50 µM [1, 3]: 54 ×10⁻⁶ cm/s
microsomal CLint at 1 uM [2, 4]: 239 µL/min/mg

CC(C)C[C@@H]1NC(=O)[C@@H](C)N(C)C(=O)C[C@@H](C(=O)N2CCCCC2)NC(=O)[C@H](CC(C)C)N(C)C(=O)[C@H](Cc2ccccc2)N(C)C(=O)[C@H](CC(C)C)NC(=O)[C@H](Cc2ccccc2)N(C)C(=O)[C@H](C)N(C)C(=O)[C@H]([C@@H](C)O)NC1=O [DP-127] ([dNMeA]LT[NMeA][NMeF]L[NMeF][NMeL]D-Piperidide; lactam N-9)
Papp at 18 hours, 50 µM [1, 3]: 47 ×10⁻⁶ cm/s
microsomal CLint at 1 uM [2, 4]: 194 µL/min/mg

CC(C)C[C@H]1C(=O)N[C@@H]([C@@H](C)O)C(=O)N(C)[C@@H](C)C(=O)N(C)[C@@H](CC(C)C)C(=O)N[C@H](C(=O)N2CCCCC2)CC(=O)N(C)CCCC(=O)N[C@@H](C)C(=O)N(C)[C@@H](Cc2ccccc2)C(=O)N[C@@H](Cc2ccccc2)C(=O)N1C [DP-128] ([NMeGABA]A[NMeF]F[NMeL]T[NMeA][NMeL]D-Piperidide; lactam N-9)
Papp at 18 hours, 50 µM [1, 3]: 23 ×10⁻⁶ cm/s
microsomal CLint at 1 uM [2, 4]: 276 µL/min/mg

CC(C)C[C@H]1C(=O)N(C)[C@@H](Cc2ccccc2)C(=O)NCC(=O)N[C@H](C(=O)N2CCCCC2)CC(=O)N(C)CCCC(=O)N[C@@H]([C@@H](C)O)C(=O)N(C)[C@@H](C)C(=O)N(C)[C@@H](Cc2ccccc2)C(=O)N[C@@H](COC(C)(C)C)C(=O)N1C [DP-129] ([NMeGABA]T[NMeA][NMeF]S(tBu)[NMeL][NMeF]GD-Piperidide; lactam N-9)
Papp at 18 hours, 50 µM [1, 3]: 17 ×10⁻⁶ cm/s
microsomal CLint at 1 uM [2, 4]: 120 µL/min/mg

CC(C)C[C@H]1C(=O)N[C@@H]([C@@H](C)O)C(=O)N(C)[C@@H](C)C(=O)N(C)[C@@H](CC(C)C)C(=O)N(C)[C@@H](Cc2ccccc2)C(=O)N[C@@H](COC(C)(C)C)C(=O)N[C@H](C(=O)N2CCCCC2)CC(=O)N(C)CCCC(=O)N(C)[C@@H](C)C(=O)N1C [DP-130] ([NMeGABA][NMeA][NMeL]T[NMeA][NMeL][NMeF]S(tBu)D-Piperidide; lactam N-9)
Papp at 18 hours, 50 µM [1, 3]: 21 ×10⁻⁶ cm/s
microsomal CLint at 1 uM [2, 4]: 76 µL/min/mg

CC[C@H](C)[C@@H]1NC(=O)[C@H](CC(C)C)N(C)C(=O)[C@H](Cc2ccccc2)N(C)C(=O)[C@H](CC(C)C)NC(=O)[C@@H](C)NC(=O)C[C@@H](C(=O)N2CCCCC2)NC(=O)[C@H](C)N(C)C(=O)[C@H](C)N(C)C(=O)CN(C)C(=O)[C@H]([C@@H](C)O)NC(=O)[C@H](Cc2ccccc2)N(C)C(=O)[C@H](C(C)C)N(C)C1=O [DP-131] ([dA]L[NMeF][NMeL]I[NMeV][NMeF]T[Sar][NMeA][NMeA]D-Piperidide; lactam N-12)
Papp at 18 hours, 50 µM [1, 3]: 61 ×10⁻⁶ cm/s
microsomal CLint at 1 uM [2, 4]: 48 µL/min/mg
